39 compounds from US12030876B2, “Aryl hydrocarbon receptor (AHR) agonists and uses thereof” (Ikena Oncology, Inc., priority 2019, dated 2024) can be followed below.

In assay [1] the target is T1, AHR (Homo sapiens, UniProt P35869).
T1 construct: endogenous in cells; host or cells: HepG2 (human), transfected with a DRE-luciferase reporter only
T1 sequence (P35869 11-848): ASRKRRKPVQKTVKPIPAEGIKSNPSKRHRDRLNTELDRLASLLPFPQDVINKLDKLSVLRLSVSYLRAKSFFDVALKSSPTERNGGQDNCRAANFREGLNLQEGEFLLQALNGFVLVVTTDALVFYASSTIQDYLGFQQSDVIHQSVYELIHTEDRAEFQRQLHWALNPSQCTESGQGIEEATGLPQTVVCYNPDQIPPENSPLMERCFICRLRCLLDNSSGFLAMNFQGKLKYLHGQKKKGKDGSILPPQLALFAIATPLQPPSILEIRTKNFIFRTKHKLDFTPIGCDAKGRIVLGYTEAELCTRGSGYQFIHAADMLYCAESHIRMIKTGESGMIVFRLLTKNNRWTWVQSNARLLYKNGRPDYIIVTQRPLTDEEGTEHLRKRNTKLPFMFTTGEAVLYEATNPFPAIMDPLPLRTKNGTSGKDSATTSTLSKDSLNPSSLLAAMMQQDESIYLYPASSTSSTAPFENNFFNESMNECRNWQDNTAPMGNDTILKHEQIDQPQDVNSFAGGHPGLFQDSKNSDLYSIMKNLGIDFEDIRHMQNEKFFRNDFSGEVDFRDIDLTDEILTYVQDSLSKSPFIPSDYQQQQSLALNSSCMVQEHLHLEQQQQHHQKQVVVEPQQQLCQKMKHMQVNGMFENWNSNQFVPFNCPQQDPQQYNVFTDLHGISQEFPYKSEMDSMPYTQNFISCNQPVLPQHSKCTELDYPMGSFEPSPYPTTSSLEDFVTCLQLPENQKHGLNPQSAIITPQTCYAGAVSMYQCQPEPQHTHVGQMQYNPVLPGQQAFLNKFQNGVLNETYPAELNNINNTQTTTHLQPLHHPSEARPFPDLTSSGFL
In words: DRE-Luciferase Reporter Assay, HepG2 (agonist). The conditions noted are these: HepG2, Table 3; read-out: DRE-Luc HepG2 - Agonist: Average EC50. Format: cell-based. The method, boiled down: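 Cells carrying a stably or transiently transfected DRE-luciferase reporter, plated overnight at 37 C, then given agonist for 6, 16 or 24 h before lysis and luciferase read-out. Signal scaled between no ligand (minimum) and activating ligand alone, e.g. TCDD (maximum); EC50 = concentration giving half-maximal luciferase activity.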
Background: Reporter assays use an easily measured gene product as a stand-in for the process of interest.

Assay [2] deals with T2, AHR (Mus musculus, UniProt P30561).
T2 sequence (P30561 1-848 F348L/P471L): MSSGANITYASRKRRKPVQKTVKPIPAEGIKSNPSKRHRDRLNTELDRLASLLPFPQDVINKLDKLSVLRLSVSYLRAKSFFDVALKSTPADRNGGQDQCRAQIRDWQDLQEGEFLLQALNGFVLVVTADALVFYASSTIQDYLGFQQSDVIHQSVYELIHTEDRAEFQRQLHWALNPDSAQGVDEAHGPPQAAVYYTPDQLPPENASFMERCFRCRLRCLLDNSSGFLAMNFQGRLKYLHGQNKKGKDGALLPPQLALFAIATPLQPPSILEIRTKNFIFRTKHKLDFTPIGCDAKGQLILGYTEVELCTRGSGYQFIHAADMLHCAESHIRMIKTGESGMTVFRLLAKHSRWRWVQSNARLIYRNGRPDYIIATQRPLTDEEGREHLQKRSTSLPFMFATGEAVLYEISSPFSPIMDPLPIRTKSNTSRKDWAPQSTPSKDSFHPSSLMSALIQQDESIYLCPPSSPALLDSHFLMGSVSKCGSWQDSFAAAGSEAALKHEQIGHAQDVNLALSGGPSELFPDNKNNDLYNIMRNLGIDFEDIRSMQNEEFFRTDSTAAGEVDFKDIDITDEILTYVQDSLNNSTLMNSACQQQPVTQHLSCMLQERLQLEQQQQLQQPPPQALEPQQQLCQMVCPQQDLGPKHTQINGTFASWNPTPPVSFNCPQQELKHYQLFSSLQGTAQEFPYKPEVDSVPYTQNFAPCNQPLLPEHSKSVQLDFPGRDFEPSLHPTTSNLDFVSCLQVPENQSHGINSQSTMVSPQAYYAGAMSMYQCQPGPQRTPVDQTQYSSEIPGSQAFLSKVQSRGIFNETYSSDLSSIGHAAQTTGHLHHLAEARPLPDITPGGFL
Description: DRE-Luciferase Reporter Assay, Hepa1.6 (agonist). The class given is cell-based, murine. The conditions noted are these: Hepa1.6, Table 3; read-out: DRE-Luc Hepa1.6 - Agonist: Average EC50. On the procedure: DRE-Luciferase Reporter Assay
AHR binds to Dioxin Responsive Elements (DRE) upstream of genes that it activates. One measure of AHR activity is activation of a reporter gene, such as luciferase, downstream of one or multiple DRE elements. Luciferase activity reflects activation and inhibition of AHR in the cells expressing this reporter.
Murine Hepa1-6 or Hepa-1c1c7 or other murine cell line with a DRE-luciferase reporter either stably or transiently transfected are plated in media in plates (96-well, 384-well or other plates) and incubated overnight at 37 C in a CO2 incubator. Likewise, human HepG2 or other human cell line with a DRE-luciferase reporter either stably or transiently transfected are plated in media in plates (96-well, 384-well or other plates) and incubated overnight at 37 C in a CO2 incubator.
The next day, an AHR agonist compound is added. Cells are incubated for 6, 16 or 24 hours or another time point and then lysed for determination of luciferase activity as a read-out of the AHR activation. Luciferase can be measured with a commercial kit such as the Promega Luciferase kit or any kit or reagents that provide the luciferin substrate for measuring luciferase activity. The level of luciferase with only activating ligand (e.g. such as TCDD, kynurenine, ITE (2-(1H-indole-3-ylcarbonyl)-4-thiazolecarboxylic methyl ester), VAF347, BNF (beta-naphthoflavone), ICZ (6-formylindolo(3,2-b) carbazole or other AHR ligands) added is the maximum signal while the luciferase with no ligand is the minimum signal. EC50s can be determined as the concentration which activates half of the maximum luciferase activity.

In general, EC50 refers to the concentration giving half of the maximal effect. With `N#Cc1cncc(-c2csc(Nc3cccc(C(F)(F)F)c3)n2)c1` [I-87], the EC50 on AHR [1] is less than 10 nM; at AHR [2], greater than 1000 nM.

With `O=[N+]([O-])c1cccc(-c2csc(Nc3cccc(C(F)(F)F)n3)n2)c1` [I-89], the EC50 at AHR [1] is less than 10 nM; at AHR [2] it was greater than 1000 nM.

`N#Cc1cccc(-c2csc(Nc3cccc(C(F)(F)F)n3)n2)c1` [I-90]: the EC50 is less than 10 nM at AHR [1] and greater than 1000 nM on AHR [2].

Regarding `FC(F)(F)c1cccc(Nc2nc(-c3cncc(Cl)c3)cs2)c1` [I-91], the EC50 was less than 10 nM at AHR [1] and 10 to 100 nM on AHR [2].

Take `C[n+]1cccc(-c2csc(Nc3cccc(C(F)(F)F)c3)n2)c1` [I-92]: the results for the EC50 at AHR [1] and on AHR [2] were less than 10 nM and 100 to 1000 nM, respectively.

As to `O=c1cc(-c2csc(Nc3cccc(C(F)(F)F)c3)n2)cc[nH]1` [I-93], the results for the EC50 at AHR [1] and at AHR [2] were less than 10 nM and greater than 1000 nM, respectively.

With `N#Cc1cccc(-c2csc(Nc3cncc(C(F)(F)F)c3)n2)c1` [I-97], the EC50 on AHR [1] was less than 10 nM; at AHR [2], 10 to 100 nM.

Turning to `N#Cc1cc(-c2csc(Nc3cccc(C(F)(F)F)c3)n2)c[n+]([O-])c1` [I-100], the figures for the EC50 at AHR [1] and on AHR [2] were less than 10 nM and greater than 1000 nM, respectively.

For the compound `[O-][n+]1cc(Cl)cc(-c2csc(Nc3cccc(C(F)(F)F)c3)n2)c1` [I-107], the EC50 at AHR [1] was less than 10 nM; on AHR [2], greater than 1000 nM.

Consider `N#Cc1cccc(-c2nsc(Nc3cccc(C(F)(F)F)c3)n2)c1` [I-109], for which the EC50 on AHR [1] is less than 10 nM; at AHR [2], greater than 1000 nM.

As to `N#Cc1cccc(-c2cnc(Nc3cccc(C(F)(F)F)c3)o2)c1` [I-112], the EC50 is less than 10 nM at AHR [1] and greater than 1000 nM at AHR [2].

As for `[O-][n+]1cccc(-c2nsc(Nc3cccc(C(F)(F)F)c3)n2)c1` [I-117], the EC50 was less than 10 nM at AHR [1] and greater than 1000 nM on AHR [2].

Regarding `O=[N+]([O-])c1cc(-c2csc(Nc3cccc(C(F)(F)F)c3)n2)c[n+]([O-])c1` [I-120], the figures for the EC50 on AHR [1] and at AHR [2] were less than 10 nM and 100 to 1000 nM, respectively.

Turning to `[O-][n+]1cccc(-c2csc(Nc3cccc(C(F)(F)F)n3)n2)c1` [I-121], the figures for the EC50 at AHR [1] and at AHR [2] were less than 10 nM and greater than 1000 nM, respectively.

As to `OCc1cccc(-c2csc(Nc3cccc(C(F)(F)F)c3)n2)c1` [I-125], the results for the EC50 at AHR [1] and on AHR [2] were 10 to 100 nM and greater than 1000 nM, respectively.

For `O=c1cc(-c2nsc(Nc3cccc(C(F)(F)F)c3)n2)cc[nH]1` [I-128], the EC50 on AHR [1] was less than 10 nM; at AHR [2] it was greater than 1000 nM.

Consider `O=c1cccc(-c2csc(Nc3cccc(C(F)(F)F)c3)n2)[nH]1` [I-130], for which the EC50 on AHR [1] and on AHR [2] was less than 10 nM each time.

In the case of `CSc1cccc(Nc2nc(-c3cccc([N+](=O)[O-])c3)cs2)c1` [I-136], the EC50 at AHR [1] was less than 10 nM; on AHR [2], 100 to 1000 nM.

As to `COc1cc(-n2cnc(Nc3cccc(C(F)(F)F)c3)n2)ccn1` [I-143], the EC50 at AHR [1] was 100 to 1000 nM; on AHR [2], greater than 1000 nM.

For the compound `O=c1cc(-n2cnc(Nc3cccc(C(F)(F)F)c3)n2)cc[nH]1` [I-144], the EC50 on AHR [1] was 10 to 100 nM; on AHR [2], greater than 1000 nM.

On to `N#Cc1cccc(-n2cnc(Nc3cccc(C(F)(F)F)c3)n2)c1` [I-145], for which the EC50 at AHR [1] is less than 10 nM; at AHR [2] it was greater than 1000 nM.

`C[N+](C)(C)CCNC(=O)N(c1cccc(C(F)(F)F)c1)c1nc(-c2cc[nH]c(=O)c2)cs1` [I-146]: the EC50 at AHR [1] is less than 10 nM; at AHR [2] it was greater than 1000 nM.

Turning to `NC(=O)c1cccc(Nc2nc(-c3ccc[n+]([O-])c3)cs2)c1` [I-147], the EC50 at AHR [1] is 100 to 1000 nM; on AHR [2] it was greater than 1000 nM.

`C[N+](C)(CCNC(=O)N(c1cccc(C(F)(F)F)c1)c1nc(-c2cccc([N+](=O)[O-])c2)cs1)CCNC(=O)N(c1cccc(C(F)(F)F)c1)c1nc(-c2cccc([N+](=O)[O-])c2)cs1` [I-148]: the EC50 on AHR [1] fell in the range of 10 to 100 nM; at AHR [2], 100 to 1000 nM.

For the compound `C[N+](C)(C)CCOc1cc(-c2csc(Nc3cccc(C(F)(F)F)c3)n2)ccn1` [I-149], the EC50 at AHR [1] and on AHR [2] was 100 to 1000 nM throughout.

`N#Cc1cccc(-c2nc(Nc3cccc(C(F)(F)F)c3)no2)c1` [I-152]: the EC50 on AHR [1] and at AHR [2] was greater than 1000 nM throughout.

Consider `CN(C)c1cc(-c2csc(Nc3cccc(C(F)(F)F)c3)n2)ccn1` [I-153], for which the EC50 is 10 to 100 nM on AHR [1] and greater than 1000 nM on AHR [2].

Take `CNc1cc(-c2csc(Nc3cccc(C(F)(F)F)c3)n2)ccn1` [I-154]: the figures for the EC50 at AHR [1] and at AHR [2] were less than 10 nM and 10 to 100 nM, respectively.

`CCCOc1cc(-c2csc(Nc3cccc(C(F)(F)F)c3)n2)ccn1` [I-155]: the EC50 at AHR [1] is 10 to 100 nM; at AHR [2], greater than 1000 nM.

On to `Nc1cc(-c2csc(Nc3cccc(C(F)(F)F)c3)n2)ccn1` [I-156], for which the EC50 on AHR [1] and at AHR [2] was less than 10 nM throughout.

On to `N#Cc1cccc(-c2noc(Nc3cccc(C(F)(F)F)c3)n2)c1` [I-157], for which the EC50 at AHR [1] was 100 to 1000 nM; at AHR [2] it was greater than 1000 nM.

As for `[O-][n+]1cccc(-n2cnc(Nc3cccc(C(F)(F)F)c3)n2)c1` [I-158], the EC50 is 10 to 100 nM at AHR [1] and greater than 1000 nM at AHR [2].

Consider `C[N+]1(C)CCN(C(=O)c2cccc(Nc3nc(-c4ccc[n+]([O-])c4)cs3)c2)CC1` [I-159], for which the EC50 on AHR [1] and on AHR [2] was greater than 1000 nM in each case.

With `COC(=O)COc1cc(-c2csc(Nc3cccc(C(F)(F)F)c3)n2)ccn1` [I-160], the EC50 on AHR [1] is less than 10 nM; at AHR [2], greater than 1000 nM.

Take `O=C(O)c1cc(/N=N/c2cccc(-c3csc(Nc4cccc(C(F)(F)F)c4)n3)c2)ccc1O` [I-162]: the EC50 at AHR [1] and at AHR [2] was greater than 1000 nM in each case.

As to `Nc1cc(-c2csc(Nc3cccc(C(F)(F)F)c3)n2)ccc1F` [I-163], the EC50 at AHR [1] and at AHR [2] was less than 10 nM each time.

As to `Nc1cncc(-c2csc(Nc3cccc(C(F)(F)F)c3)n2)c1` [I-164], the EC50 on AHR [1] and on AHR [2] was less than 10 nM in each case.

Regarding `Nc1cc(-c2csc(Nc3cccc(C(F)(F)F)c3)n2)c(F)cc1F` [I-165], the 50% effective concentration (EC50) on AHR [1] and on AHR [2] was less than 10 nM throughout.

Consider `Nc1ccc(F)c(-c2csc(Nc3cccc(C(F)(F)F)c3)n2)c1` [I-166], for which the EC50 at AHR [1] and on AHR [2] was less than 10 nM each time.
